From PMC12040169 (PLOS Biology, 2025) come the findings set out here.

Structures are written as SMILES.

This data set can be described thus: in vitro. The following applies: human, hela cells, % viability.

Regarding `CC(C)(C)Cc1nnc(N)s1` [CBK050161], the viability at 28.5 h, 10 µM is 92.6%. For `COCCc1nsc(N2CCCC(c3nccs3)C2)n1` (stereo not shown) [CBK305110], the viability at 28.5 h, 10 µM turned out to be 92%.

`COc1ccccc1C(=O)Nc1ccc([C@@H](O)[C@H]2COCC(=O)N2)cc1` [CBK289688]: the viability at 28.5 h, 10 µM was found to be 97.3%. Then `COCCn1c(SC(C)C(=O)OC)nc2ccc(Br)cc2c1=O` (stereo not shown) [CBK306479], with 88.5%; and `CCOc1ccccc1CNc1ccc(C2c3ccsc3CCN2C(C)=O)cc1` (stereo not shown) [CBK286459], with 104%. As to `Nc1nc(CSCCO)nc(Nc2ccc(F)cc2)n1` [CBK265542], the viability at 28.5 h, 10 µM turned out to be 98.3%. For `Oc1nc(O)c2c3c(n(CCn4ccnc4)c2n1)CCCC3` [CBK024380B], the viability at 28.5 h, 10 µM is 109%.

Turning to `COCCOCCCC(=O)OCC1Cc2cc(F)ccc2O1` (stereo not shown) [CBK304886], the viability at 28.5 h, 10 µM was found to be 91.2%. `COC(=O)c1cccc(C(=O)Nc2ncc(-c3ccccc3)s2)c1` [CBK298294]: the viability at 28.5 h, 10 µM amounted to 89.7%. In the case of `O=C(COc1cccc2c1CCNC2=O)Nc1ccccc1` [CBK287730] it was 89%; in that of `O=C(O)CSc1ccc(Oc2ccc(SCC(=O)O)cc2)cc1` [CBK261254], 92.6%. Then `O=C(CCn1cnc2ccccc21)NNC(=O)Nc1cccc(C(F)(F)F)c1` [CBK269093], with 93.9%.

`Cn1c(=O)[nH]c(=O)c2c1nc(CN1CCOCC1)n2Cc1c(F)cccc1Cl` [CBK270085]: the viability at 28.5 h, 10 µM stood at 90.5%. In the case of `Cc1c(Cc2c(Cl)cccc2Cl)c(=O)n(C)n1C` [CBK113274] it was 97.2%. In the case of `Nc1nnc(Sc2nc3ccccc3nc2N2CCCC2)s1` [CBK093750] it was 88.4%.

On to `CCN(C(=O)c1cnccn1)C(CC1CCCCC1)c1ccccc1` (stereo not shown) [CBK061638], for which the viability at 28.5 h, 10 µM turned out to be 92.9%. Then `Cc1cc(NS(=O)(=O)c2ccc(N3CCOCC3)nc2)n(C)n1` [CBK067253], with 117%; and `Cc1ccc(C2(C(=O)N(C)CCN3CCCCC3)CCOCC2)cc1` [CBK281833], with 107%.

Regarding `CC(Oc1ccccc1)C(=O)Nc1cccc(-c2nnc(-c3ccccc3)o2)c1` (stereo not shown) [CBK262822], the viability at 28.5 h, 10 µM was found to be 91.2%. Take `CCCCOc1ccc(-c2ccc(C#N)cc2)cc1` [CBK056958]: the viability at 28.5 h, 10 µM amounted to 93%. Consider `O=C(COc1cccnc1)N1CCCC2(CCN(C(=O)Cc3c[nH]c4ccccc34)C2)C1` (stereo not shown) [CBK131608], for which the viability at 28.5 h, 10 µM was determined as 105%. With `Nc1nc(O)c2c(n1)NC1(CCC1)[C@@H]1C[C@@H](O)[C@@H](O)[C@H]21` [CBK303248], the viability at 28.5 h, 10 µM amounted to 118%. Consider `COc1ccc(S(=O)(=O)N(C)c2ccc(C(=O)NCc3ccccn3)cc2)cc1` [CBK269099], for which the viability at 28.5 h, 10 µM worked out at 88.1%. Then `O=C1N=C(NC2CCCCCC2)SC1CCNC(=O)N1CCOCC1` (stereo not shown) [CBK067687], with 110%. With `Nc1nc(SCCc2ccccc2)nc2sc3c(c12)CCCC3` [CBK263445], the viability at 28.5 h, 10 µM turned out to be 94.9%. Then `O=C(NCc1cccc2ccccc12)N1CCCCC1CO` (stereo not shown) [CBK156167], with 99.7%; and `O=S(=O)(c1ccc(C(F)(F)F)cc1Cl)N1CCN(Cc2cccc(Br)c2)CC1` [CBK063163], with 83.7%. For `Cc1cc(Br)ccc1S(=O)(=O)Nc1nc(-c2c(F)cccc2Cl)cs1` [CBK200026], the viability at 28.5 h, 10 µM was 95.6%. Regarding `C/C(CS(=O)(=O)c1ccccc1)=N/NC(N)=S` [CBK026285], the viability at 28.5 h, 10 µM is 111%.

Consider `Cc1ccc(NC(=O)N2CCCC(CO)C2)cc1` (stereo not shown) [CBK156065], for which the viability at 28.5 h, 10 µM amounted to 77.9%.

On to `Cc1c(C(=O)N2CCS(=O)(=O)CC2)nnn1-c1ccc2ncccc2c1` [CBK305529], for which the viability at 28.5 h, 10 µM was 112%. Then `CS(=O)(=O)N1CC2(CCN(CCc3c[nH]c4ccccc34)CC2)c2ccccc21` [CBK084017T], with 97.9%; and `O=C(O)c1ccc(NS(=O)(=O)Cc2ccccc2)cc1` [CBK034061], with 105%; and `Cc1cccc(C)c1NC(=O)Cn1nnc(-c2ccc(CN3CCC(C)CC3)cc2)n1` [CBK121194], with 87.2%. As to `Cc1cc(Cl)cc(Cl)c1S(=O)(=O)Nc1nc(-c2cccnc2)cs1` [CBK200035], the viability at 28.5 h, 10 µM came to 105%. As to `CS(=O)(=O)c1ccc2nc(NC(=O)c3cccs3)sc2c1` [CBK287340], the viability at 28.5 h, 10 µM came out at 92.6%. In the case of `COc1cccc(C2C(C(=O)c3ccc(Cl)cc3)=C(O)C(=O)N2CCN2CCOCC2)c1` (stereo not shown) [CBK264901] it was 90%. Then `Cc1nn2c(CN(C(=O)c3ccccc3)c3ccccc3)nnc2c2ccccc12` [CBK268084], with 87.7%; and `O=C(NC1(c2ccccc2)CC1)c1cc(-n2cnnc2)ccc1Cl` [CBK282777], with 97.2%; and `CN(Cc1ccco1)C(=O)c1cccc(NC(=O)C2CC2)c1` [CBK304857], with 101%. As for `O=C(/C=C/c1cn(-c2ccccc2)nc1-c1cccnc1)c1ccc(-c2ccccc2)cc1` [CBK263213], the viability at 28.5 h, 10 µM is 95.5%. As for `CC1CN(Cc2nc3c(c(=O)n(C)c(=O)n3C)n2CCN2CCOCC2)CC(C)O1` (stereo not shown) [CBK269340], the viability at 28.5 h, 10 µM amounted to 93.3%. Turning to `CC(=O)Nc1ccc(-c2nc[nH]c2Br)cc1` [CBK019063], the viability at 28.5 h, 10 µM was 88%. Regarding `[O-][n+]1c2c([n+]([O-])c3c1CCCC3)CCCCC2` [CBK263586], the viability at 28.5 h, 10 µM was found to be 95.5%. Consider `COc1ccccc1CNc1ncnc2[nH]ncc12` [CBK288100], for which the viability at 28.5 h, 10 µM stood at 99.5%. In the case of `O=[N+]([O-])c1cc(-c2nc(-c3ccco3)c(-c3ccco3)[nH]2)ccc1Br` [CBK019778] it was 86.3%. With `Cn1nc(C2CCN(C(=O)Cc3ccsc3)CC2)c2cccnc21` [CBK284986], the viability at 28.5 h, 10 µM came out at 101%.

Regarding `CCOc1ccc(C(=O)C2=C(O)C(=O)N(CCN3CCOCC3)C2c2ccc(N(C)C)cc2)c(C)c1` (stereo not shown) [CBK264650], the viability at 28.5 h, 10 µM was 92.7%.

For the molecule `COc1cc(/C=N/Nc2nnn[nH]2)cc2c1OCO2` [CBK262253], the viability at 28.5 h, 10 µM came out at 100%. Then `Oc1cc(-c2ccccc2)nc(NNc2ccccc2)n1` [CBK261716], with 96.6%; and `Cc1ccc(CN(CC(=O)N2CCC(C(N)=O)CC2)S(=O)(=O)c2ccc(Br)cc2)cc1` [CBK265813], with 102%; and `OCc1ccc(-c2nccnc2NCC2CC2)cc1` [CBK037334], with 86%. For the molecule `S=C(Cc1csc2ccccc12)NC1CCCCC1` [CBK023515], the viability at 28.5 h, 10 µM came to 88.7%. Then `COc1ccc(C2(CN3CCC(NC(C)=O)CC3)CC2)cc1` [CBK285357], with 101%. As for `COc1cccc(Nc2cc(-c3ccc(CC(C)C)cc3)ncn2)c1` [CBK090745], the viability at 28.5 h, 10 µM came out at 110%.

`O=C(Cc1cccc(F)c1)NCCn1nc(-c2ccco2)ccc1=O` [CBK283708]: the viability at 28.5 h, 10 µM was found to be 86.3%. In the case of `CC(=O)Nc1ccc(C(=O)Nc2ccc(S(N)(=O)=O)cc2)cc1` [CBK261600], the viability at 28.5 h, 10 µM stood at 95.3%. Regarding `CC(C)CC(NS(=O)(=O)c1cccc2nsnc12)C(=O)O` (stereo not shown) [CBK217288], the viability at 28.5 h, 10 µM was 94.2%.
